From patent US20230277553A1, “THERAPEUTIC COMPOSITION OF CURE-PRO COMPOUNDS FOR TARGETED DEGRADATION OF BET DOMAIN PROTEINS, AND METHODS OF MAKING AND USAGE” (CORNELL UNIVERSITY, priority 2020, published 2023)
Entries after “also recorded” stand apart in the source; their conditions may differ. Residues, ends and D or L forms follow the SMILES beside them. *: point of attachment. Cbz = O=C(OCc1ccccc1)*

What was measured:
Assay type in all cases: cell-based
[1] = biological target: T1, BRD4 (Homo sapiens, UniProt O60885); assay: CURE-PRO-mediated BRD4 degradation with VHL ligands, WES (ProteinSimple), MCF7 cells; parameters: endogenous in cells; conditions: for Inhibition of BRD-E2 + 8305 mediated BRD4 degradation by proteasome inhibitor / Inhibition of BRD-E20 + 8305 mediated BRD4 degradation by proteasome inhibitor: MCF7, monomers 10 μM each, inhibitor 1 μM pre-incubation
Method: (§1) All cell lines were purchased from ATCC or DSMZ and grown at 37° C. with 5% CO2. Human HeLa cells were cultured in complete growth medium (Dulbecco's modified Eagle's medium (DMEM) supplemented with 10% FBS); MCF7 cells were cultured in complete growth medium (Dulbecco's modified Eagle's medium (DMEM) supplemented with 10% FBS and 0.01 mg/ml human recombinant insulin (Sigma Aldrich); Namalwa and MOLM-13 cells were cultured in complete growth medium (RPMI 1640 medium supplemented with 10% FBS); MV-4-11 were cultured in complete growth medium (Iscove's Modified Dulbecco's medium, supplemented with 10% FBS); HCT116 cells were cultured in complete growth medium (McCoy's 5a Medium supplemented with 10% FBS). For cellular degradation of BRD4 studies, cells were seeded in a 12-well plate at 70-80% confluency, allowed to attach overnight, and incubated with the indicated compounds for the indicated time. When indicated, a 15-minute pretreatment with 10 μM pomalidomide, 10 μM VHL298, 10 μM Nutlin3a, 1 μM MG-132 or 1 μM Carfilzomib was performed before the addition of CURE-PROs. For washout studies, after CURE-PRO treatment, media was aspirated and incubated with complete medium for the indicated time before lysis.
(§2) WES Simple analysis was performed on WES system (ProteinSimple-Biotechne) according to the manufacturer's instructions. Total protein concentrations of cell lysates were determined by the Pierce BCA kit (Thermo Fisher). 3 μL of 0.3 μg/μL of the protein lysate was loaded onto a 12- to 230-kDa WES assay plate (ProteinSimple) where 300 nL sample was withdrawn through a capillary, subjected to electrophoretic separation of proteins by size, and followed by the simultaneous, HRP-based detection of proteins using the Anti-Rabbit Detection Module (Proteinsimple: #DM-001). The electropherograms were checked then the automatic peak detection was manually corrected if it was required.
MCF7 cells (3×10^6) were treated for 4-24 hours continually (FIG. 72), or treated for 4h, washed and incubated for a further 4-24 h with the compounds solubilized in DMSO. Compounds were added at 10 μM each. Cells were washed, lysed, and clarified by centrifugation. The total protein concentration was quantified by the BCA method (ThermoFisher Sciences). Standardized protein samples were electrophoresed and imaged as described in the WES Proteinsimple section above. FIG. 69 depicts the CURE-PRO-mediated BRD4 degradation for the BRD-E50 monomer, and VHL ligand, 8305.
(§3) MCF7 cells (3×10^6) were treated for 24 hours with the compounds solubilized in DMSO. CURE-PRO monomers were added at 10 μM each and the proteasomal inhibitors at 1 μM. Standardized protein samples were electrophoresed and imaged as described in the WES Proteinsimple section above. FIGS. 73 and 75 depicts the dependence of the proteasome for CURE-PRO-mediated BRD4 degradation.
MCF7 cells (3×10^6) were treated for 24 hours with the compounds solubilized in DMSO. CURE-PRO monomers were added at 10 μM. FIG. 74 depicts the CURE-PRO-mediated BRD4 degradation for the BRD-E50 monomer, and VHL ligand, 8305 combined in a 1:1 ratio after 24 h.

[2] = test system: MV-4-11 cells; assay: CellTiter-Glo cell viability, MV-4-11 cells; conditions: for Loss of cellular viability / toxicity, cotreated with cereblon ligands 8046, 8047 and 8066 vs monomers alone: MV-4-11, 72 hours, 1:1, 10 nM-100 μM each
Method: CellTiter-Glo® 2.0 Cell Viability Assay (Promega) was carried out following the manufacturer's recommendations. Cells were seeded at a density of 1000 cells/well in a white 96 well plates (Corning, #3917) in a total volume of 100 μl with respective monomers, combinations of BRD ligands together with E3 ligase ligands or vehicle control treatment. After a 72 h incubation, 100 ul of the CellTiter-Glo® substrate was added per well and luminescence was read on a Spectramax M5 (Molecular Devices). Dose-response curves were generated using Graphpad Prism software.
MV-4-11 cells (5×104) were treated for 24 hours with the sample compounds solubilized in DMSO. The compounds were added at 1 nM-100 μM each. Cellular viability was determined using the CellTiter-Glo® Luminescent Cell Viability Assay (Promega) described above. FIGS. 19-22 depict the CURE-PRO-mediated loss of cellular viability for BRD monomers (JQ1 derivatives comprising of catechol linkers), and CRBN ligand, 8049 (pomalidomide derivatives comprising boronic acid linkers) combined in a 1:1 ratio.
MV-4-11 cells (1×104) were treated for 72 hours with the compounds solubilized in DMSO. Compounds were added at 10 nM-100 μM each. Cellular viability was determined using the CellTiter-Glo® Luminescent Cell Viability Assay (Promega) described above. FIGS. 47-54 depict the CURE-PRO-mediated loss of cellular viability for BRD monomers (JQ1 derivatives comprising of boronic acid linkers), and CRBN ligands, 8046, 8047 and 8066 (pomalidomide derivatives comprising diol linkers) combined in a 1:1 ratio.

[3] = biological target: T1, BRD4; assay: CURE-PRO-mediated BRD4 degradation with MDM2 ligands, WES (ProteinSimple), HCT116 cells; parameters: endogenous in cells; conditions: HCT116, monomers 10 μM each, inhibitor 1 μM pre-incubation
Method: as §1, §2
(§4) HCT116 cells (3×10^6) were treated for 24 hours with the compounds solubilized in DMSO. Compounds were added at 1 μM-10 μM each. Standardized protein samples were electrophoresed and imaged as described in the WES ProteinSimple section above. FIGS. 59, 60, and 61 depict the concentration-dependence of CURE-PRO-mediated BRD4 degradation using MDM2 ligands.
as §4, with “62” for “59, 60,”, “63” for “61”
as §3, with “HCT116” for “MCF7”, “ProteinSimple” for “Proteinsimple”, “FIG. 68” for “FIGS. 73 and 75”

[4] = biological target: T1, BRD4; assay: Summary of BRD4 degradation by CURE-PRO pairs, estimated from Western Blot or WES (Proteinsimple); parameters: endogenous in cells; conditions: Table 3; aromatic 1,2-diol-containing VHL ligand, second drawing (8305)
Source text: A black check mark indicates efficacy of 30% to 70% or higher protein degradation.

Cc1ncsc1-c1ccc(CNC(=O)[C@@H]2C[C@@H](O)CN2C(=O)[C@@H](NC(=O)c2cccc(O)c2O)C(C)(C)C)cc1 [compound 8305, (2S,4R)-1-((S)-2-(2,3-dihydroxybenzamido)-3,3-dimethylbutanoyl)-4-hydroxy-N-(4-(4-methylthiazol-5-yl)benzyl)pyrrolidine-2-carboxamide]
BRD4 degradation, monomer alone (WES) ([1]; MCF7, 10 μM): no degradation of BRD4

Cc1ncsc1-c1ccc(CNC(=O)[C@@H]2C[C@@H](O)CN2C(=O)[C@@H](NC(=O)C2(C#N)CC2)C(C)(C)C)cc1 [VHL298]
Inhibition of BRD-E50 + 8305 mediated BRD4 degradation by preincubation ([1]; MCF7, equimolar final concentrations (10 μM)): attenuates CURE-PRO mediated BRD4 degradation; also recorded: inhibited CURE-PRO mediated degradation; also recorded: inhibits the degradation of BRD4

COc1ccc2c(c1)C(c1ccc(Cl)cc1)=N[C@@H](CC(=O)NCCCCCNC(=O)c1cccc(O)c1O)c1nnc(C)n1-2 [BRD-N8, N-(5-(2-((4S)-6-(4-chlorophenyl)-8-methoxy-1-methyl-4H-benzo[f][1,2,4]triazolo[4,3-a][1,4]diazepin-4-yl)acetamido)pentyl)-2,3-dihydroxybenzamide]
Loss of cellular viability / toxicity, co-dosed with CRBN ligand 8049 ([2]; MV-4-11, 24 hours, 1:1 with 8049, 1 nM-100 μM each): concentration-dependent loss in cellular viability; also recorded: increased toxicity

CC(C)C[C@@H](C=O)NC(=O)[C@H](CC(C)C)NC(=O)[C@H](CC(C)C)NC(=O)OCc1ccccc1 [MG-132] (Cbz-Leu-Leu-Leu-aldehyde)
Inhibition of BRD-N25 + 8310 mediated BRD4 degradation by proteasome inhibitor [3]: inhibited by the pre-incubation
Inhibition of BRD-E2 + 8305 mediated BRD4 degradation by proteasome inhibitor [1]: inhibited by the pre-incubation
Inhibition of BRD-E20 + 8305 mediated BRD4 degradation by proteasome inhibitor [1]: inhibited by the pre-incubation

CCNC(=O)C[C@@H]1N=C(c2ccc(Cl)cc2)c2cc(OCCCCCCCNC(=O)c3ccc(B(O)O)cc3)ccc2-n2c(C)nnc21 [BRD-E78]
Loss of cellular viability / toxicity, cotreated with cereblon ligands 8046, 8047 and 8066 vs monomers alone [2]: reduced viability; also recorded: increased toxicity
Degradation of BRD4 in combination with VHL ligand [drawing 397] [4]: ✓ (A black check mark indicates efficacy of 30% to 70% or higher protein degradation)

CC(C)C[C@H](NC(=O)[C@H](CCc1ccccc1)NC(=O)CN1CCOCC1)C(=O)N[C@@H](Cc1ccccc1)C(=O)N[C@@H](CC(C)C)C(=O)[C@@]1(C)CO1 [Carfilzomib]
Inhibition of BRD-N25 + 8310 mediated BRD4 degradation by proteasome inhibitor [3]: inhibited by the pre-incubation
Inhibition of BRD-E2 + 8305 mediated BRD4 degradation by proteasome inhibitor [1]: inhibited by the pre-incubation
Inhibition of BRD-E20 + 8305 mediated BRD4 degradation by proteasome inhibitor [1]: inhibited by the pre-incubation

O=C1CCC(N2C(=O)c3cccc(CNC(=O)c4cccc(B(O)O)c4)c3C2=O)C(=O)N1 (centres unmarked) [compound 8049]
Loss of cellular viability, monomer alone ([2]; MV-4-11, 24 hours, 1 nM-100 μM): little loss of viability was observed

COc1ccc2c(c1)C(c1ccc(Cl)cc1)=N[C@@H](CC(=O)Nc1cccc(B(O)O)c1)c1nnc(C)n1-2 [BRD-E73, (3-(2-((4S)-6-(4-chlorophenyl)-8-methoxy-1-methyl-4H-benzo[f][1,2,4]triazolo[4,3-a][1,4]diazepin-4-yl)acetamido)phenyl)boronic acid]
Loss of cellular viability / toxicity, cotreated with cereblon ligands 8046, 8047 and 8066 vs monomers alone [2]: reduced viability; also recorded: increased toxicity

CCNC(=O)C[C@@H]1N=C(c2ccc(Cl)cc2)c2cc(Sc3ccc(B(O)O)cc3)ccc2-n2c(C)nnc21 [BRD-E75, (4-(((4S)-6-(4-chlorophenyl)-4-(2-(ethylamino)-2-oxoethyl)-1-methyl-4H-benzo[f][1,2,4]triazolo[4,3-a][1,4]diazepin-8-yl)thio)phenyl)boronic acid]
Loss of cellular viability / toxicity, cotreated with cereblon ligands 8046, 8047 and 8066 vs monomers alone [2]: reduced viability; also recorded: increased toxicity
